Results reported in US12377107B2, “NT5C2 inhibitors for the treatment of chemotherapy-resistant acute lymphoblastic leukemia” (THE TRUSTEES OF COLUMBIA UNIVERSITY IN THE CITY OF NEW YORK, priority 2019, dated 2025).

Experiments:
NT5C2 = NT5C2 (Homo sapiens, UniProt P49902, R367Q); test: NT5C2 inhibition test (malachite green based assay detecting free inorganic phosphate); type: biochemical
[1] = Dissolution of compound for NT5C2 inhibition test; type: physicochemical
[2] = system: NT5C2 R367Q mutant mouse lymphoblasts; test: Cell viability of NT5C2 R367Q mutant mouse lymphoblasts in combination with 6-MP; type: cell-based; details: for synergy with 6-MP to decrease cell viability: combination with 6-mercaptopurine, dose-dependent
From the text: Various embodiments relate to the synthesis and characterization of NT5C2 inhibitors, HTP47 and HTP48, for treatment of chemotherapy resistant T-ALL.
[drawing 5] • to decrease cell viability of NT5C2 R367Q mutant mouse lymphoblasts. As such, various embodiments may be used in combination with existing chemotherapies to treat T-ALL and relapsed T-ALL.
Various embodiments relate to ongoing in vitro and in vivo functional characterization and development of optimized inhibitors. […] Control experiment were performed for dose optimization of HTP47 and HTP48 in C2-2 NT5C2 WT mouse lymphoblasts. […] Synthesis reactions for HTP47 and HTP48 are also provided.

NT5C2, sequence (P49902 whole entry R367Q): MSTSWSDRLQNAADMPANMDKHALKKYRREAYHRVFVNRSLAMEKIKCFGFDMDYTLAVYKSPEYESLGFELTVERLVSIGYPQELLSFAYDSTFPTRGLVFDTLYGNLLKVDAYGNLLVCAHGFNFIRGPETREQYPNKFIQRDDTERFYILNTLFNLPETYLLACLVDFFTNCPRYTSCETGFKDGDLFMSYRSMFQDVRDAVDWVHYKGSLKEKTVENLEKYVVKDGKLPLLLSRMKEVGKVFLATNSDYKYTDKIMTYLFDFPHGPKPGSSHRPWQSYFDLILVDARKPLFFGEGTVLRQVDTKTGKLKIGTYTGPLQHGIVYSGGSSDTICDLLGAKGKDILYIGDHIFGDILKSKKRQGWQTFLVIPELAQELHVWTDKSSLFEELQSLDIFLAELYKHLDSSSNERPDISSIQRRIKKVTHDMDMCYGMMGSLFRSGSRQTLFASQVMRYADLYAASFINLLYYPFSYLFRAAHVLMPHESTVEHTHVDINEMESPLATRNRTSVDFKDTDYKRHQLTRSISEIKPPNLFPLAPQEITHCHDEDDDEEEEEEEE

Row | NT5C2 inhibitory activity (NT5C2; assay format not given) | NT5C2 inhibitory activity (NT5C2; malachite green based assay) | Structure (SMILES) | other results
1 | no NT5C2 inhibition activity |  | CC1(CO)CCN(C(=O)c2c[nH]c(=O)c3ccccc23)CC1 [Formula 35] | 
2 | no NT5C2 inhibition activity |  | CCC1(CC)CCN(C(=O)c2c[nH]c(=O)c3ccccc23)CC1 [Formula 36] | 
3 | no NT5C2 inhibition activity |  | CNC1CCN(C(=O)c2c[nH]c(=O)c3ccccc23)CC1 [Formula 37] | 
4 | no NT5C2 inhibition activity |  | NCC1CCCN(C(=O)c2c[nH]c(=O)c3ccccc23)C1 (centres unmarked) [Formula 39] | 
5 | have NT5C2 inhibitory activity | NT5C2 inhibitory activity | NC(=O)c1c(NC(=O)c2ccc3[nH]cnc3c2)sc2c1CCCC2 [HTP2] | 
6 | have NT5C2 inhibitory activity |  | N#Cc1c(NC(=O)c2ccc3[nH]cnc3c2)sc2c1CCCC2 [HTP22] | 
7 | have NT5C2 inhibitory activity |  | NC(=O)c1c(NC(=O)c2ccc3[nH]cnc3c2)sc2c1CCC2 [HTP41] | 
8 | have NT5C2 inhibitory activity | NT5C2 inhibitory activity | Cc1nc2nc(C(=O)Nc3sc4c(c3C(N)=O)CCCC4)ccc2[nH]1 [HTP47] | potency of 6-MP in combination, comparison of HTP47 and HTP48 ([2]; combination with 6-MP): greater potency of 6-MP in combination with HTP47 compared to HTP48; synergy with 6-MP to decrease cell viability [2]: act synergistically with 6-MP in a dose-dependent manner
9 | have NT5C2 inhibitory activity | NT5C2 inhibitory activity | Cn1cnc2cc(C(=O)Nc3sc4c(c3C(N)=O)CCCC4)ccc21 [HTP48] | synergy with 6-MP to decrease cell viability [2]: act synergistically with 6-MP in a dose-dependent manner

Row | Structure (SMILES) | NT5C2 inhibitory activity (NT5C2; assay format not given) | NT5C2 inhibitory activity (NT5C2; malachite green based assay) | other results
10 | CC(C)CCNC(=O)c1c[nH]c(=O)c2ccccc12 [Formula 38] | no NT5C2 inhibition activity was observed |  | dissolution [1]: did not dissolve
